Data: paper PMC10058229, “Diverse cytomotive actins and tubulins share a polymerization switch mechanism conferring robust dynamics” (Science Advances, 2023)

Biological target: T1, BtubA*B (Prosthecobacter dejongeii, UniProt A0A7W7YIU5+A0A7W7YJ10, A0A7W7YIU5:R284G/A0A7W7YIU5:K286D/A0A7W7YIU5:F287G)
T1 construct: gene HNQ64_001272; BtubA M-loop triple mutant coexpressed with BtubB in E. coli C41(DE3); no tag mentioned; single protofilament polymer; Methods once print R286D instead of K286D
T1 sequence (A0A7W7YIU5 1-473 R284G/K286D/F287G): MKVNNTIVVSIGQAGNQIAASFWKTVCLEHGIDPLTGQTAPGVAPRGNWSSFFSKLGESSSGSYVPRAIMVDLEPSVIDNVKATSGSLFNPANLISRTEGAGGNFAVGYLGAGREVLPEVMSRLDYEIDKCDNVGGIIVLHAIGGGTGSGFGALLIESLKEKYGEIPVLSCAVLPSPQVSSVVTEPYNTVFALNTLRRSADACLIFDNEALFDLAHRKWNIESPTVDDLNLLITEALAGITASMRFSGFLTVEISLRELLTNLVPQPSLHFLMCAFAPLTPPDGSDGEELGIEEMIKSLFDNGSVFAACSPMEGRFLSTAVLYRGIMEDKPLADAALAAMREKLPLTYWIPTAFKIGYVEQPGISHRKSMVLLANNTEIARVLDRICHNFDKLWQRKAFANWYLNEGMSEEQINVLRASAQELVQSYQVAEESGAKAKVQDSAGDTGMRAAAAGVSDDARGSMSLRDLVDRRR
T1 sequence (A0A7W7YJ10 1-426): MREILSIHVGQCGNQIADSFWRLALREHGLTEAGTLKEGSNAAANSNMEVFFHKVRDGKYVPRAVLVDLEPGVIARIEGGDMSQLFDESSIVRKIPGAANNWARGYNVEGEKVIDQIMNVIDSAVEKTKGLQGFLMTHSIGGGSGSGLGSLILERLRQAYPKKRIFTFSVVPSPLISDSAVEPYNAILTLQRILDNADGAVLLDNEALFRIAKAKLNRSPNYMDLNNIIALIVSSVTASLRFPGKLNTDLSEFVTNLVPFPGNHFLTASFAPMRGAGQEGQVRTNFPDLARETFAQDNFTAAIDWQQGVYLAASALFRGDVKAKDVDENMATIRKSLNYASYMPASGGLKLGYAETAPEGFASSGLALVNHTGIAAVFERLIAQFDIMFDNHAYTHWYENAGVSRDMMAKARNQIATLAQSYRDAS
Experiment: polymerization seen by cryo-EM (~[…] Å map)
Type: biochemical
Settings: 5 mM GTP, 5 mM magnesium acetate, pH 7.7, 20 °C; nucleotide not resolved

SMILES: Nc1nc2c(ncn2[C@@H]2O[C@H](COP(=O)(O)OP(=O)(O)OP(=O)(O)O)[C@@H](O)[C@H]2O)c(=O)[nH]1 [GTP]
- polymerization seen by cryo-EM (~8 Å map): BtubA*B polymerizes in the presence of GTP and GMPCPP to form straight single protofilaments
